Series [1] can be described thus: pH solubility studies on Milrinone (saturated solubility in different buffers). The note with it: for solubility at 24 h: thermodynamic from solid. Format: physicochemical. The protocol:
1. pH 1.2-Hydrochloric Acid Buffer
3. pH 6.8-Phosphate Buffer
4. pH 7.4-Phosphate Buffer.
1. 2 mL buffer solution is placed into a 8 mL USP Type I clear glass vial (with screw cap and PTFE septa)
3. The addition of Milrinone is continued till the formation of saturated solution.
4. The pH of the saturated solution is measured after the addition of Milrinone.
5. If there is any difference in pH more than 0.1 units is observed when compared to the initial pH, the pH was adjusted with acid or base respectively to bring it to the initial pH.
6. The vials are closed with screw cap and kept for mixing using rotary tube shaker for 24 h.

The conditions of series [2]: after 6 hours (equilibrium), AHF patients, cited from earlier work.
Series [3] has as its system patients with severe CHF. The note with it: cited from earlier work.
The test system of series [4] is patients with endstage CHF. The note with it: compared with the preceding 3 months; cited from earlier work.
The next series concerns refractory HF patients. The note with it: 12-month study, cited from earlier work.
In series [5] the test system is patients undergoing CABG surgery. The note with it: ten minutes after drug administration versus before; cited from earlier work.
Series [6] deals with pediatric patients at high risk for developing low cardiac output syndrome (LCOS). The following applies: cited from earlier work.
For series [7], the system named is pediatric patients with low cardiac output. The following applies: intravenous; cited from earlier work.
Series [8] concerns patients with left ventricular dysfunction and/or pulmonary hypertension. The note with it: 50 μg/kg loading then 0.5 μg/kg/minute, n=15; cited from earlier work.
The subject of series [9] is patients with NYHA class III or IV HF and pulmonary vascular resistance of 200 dynes/s/cm or more. The arrangement: dose or concentration left out as unconfirmed. The following applies: cited from earlier work.
A further series has as its system patients with CHF. The arrangement: dose or concentration left out as unconfirmed. The following applies: 15 minutes post-dosing, cited from earlier work.
Series [10] concerns patients with class III or IV CHF. The note with it: after milrinone therapy; 5 patients at baseline; cited from earlier work.
The subject of series [11] is Human internal mammary arterial rings. The following applies: rings pretreated with milrinone; cited from earlier work.
Series [12] relates to patients undergoing cardiopulmonary bypass. The note with it: cited from earlier work.
Series [13] concerns patients with severe CHF. The following applies: oral, cited from earlier work.

In brackets after ≈: the same amount, converted by molar mass. Like-named read-outs stand apart in the source and are kept apart here.

In the case of `Cc1[nH]c(=O)c(C#N)cc1-c1ccncc1` [milrinone, 1,2-dihydro-3-cyano-6-methyl-5-(4-pyridinyl)-2(1H)-pyridinone], in series [1] (acidic pH, decreases gradually with increase in pH), the solubility result is “highly soluble”. Further, the solubility at 24 h in [1] (aqueous buffer, pH 4.5 Acetate Buffer) is 1830 µg/mL (≈ 8.64 mM); in series [1] (aqueous buffer, pH 6.8 Phosphate Buffer), 742 µg/mL (≈ 3.51 mM); in series [1] (aqueous buffer, pH 7.4 Phosphate Buffer), 603 µg/mL (≈ 2.85 mM); in series [1] (hydrochloric acid buffer, simulated gastric fluid, pH 1.2 Hydrochloric Acide Buffer), 25400 µg/mL (≈ 120 mM). For the same compound, the plasma milrinone concentration in series [2] (continuous infusion 0.25 μg/kg after loading dose) is given as 97 ng/mL; in [2] (continuous infusion 0.5 μg/kg after loading dose), 197 ng/mL; in series [2] (continuous infusion 0.75 μg/kg after loading dose), 284 ng/mL. Also, in the series on patients with severe CHF [3] (after median short-term infusion 75 μg/kg IV, from 27 at baseline), the “left ventricular end-diastolic pressure” value is reported as 18 mmHg. For the same compound, the “increase in left ventricular ejection fraction” value in the series with patients with severe CHF [3] (following a 7.5 mg oral dose, 10 patients on drug for 6 months or longer) was 27%. The “decrease in mean arterial pressure” value in the series on patients with severe CHF [3] (intravenous) is listed as 6%. The “increase in peak positive first derivative of left ventricular pressure (dP/dT)” value with patients with severe CHF [3] (intravenous) is 28%. The “increase in resting heart rate” value in the series on patients with severe CHF [3] (intravenous) is on record as 8%. Further, the “fever, thrombocytopenia, or gastrointestinal toxicity” value in the series with patients with severe CHF [3] (oral therapy, average 29 mg daily, up to 11 months) is on record as “No evidence”. In addition, in series [4], the “drop in number of hospitalizations” value is listed as “fourfold”. In addition, in the series on refractory HF patients (from 21 in previous year), the emergency room admissions was 10. The hospital admissions with refractory HF patients (from 75 in previous year) was 34. In addition, the hospital days in the series on refractory HF patients (from 528 in previous year) is 150. For the same compound, the “change in IMA flow” value in series [5] is 24%. For the same compound, the “patients who developed LCOS” value in series [6] (high-dose group, within 36 hours) is 9.6%; in series [6] (low-dose group), 17.7%. Further, the results for the “patients with prolonged hospital stays (longer than 15 days)” value in series [6] (high-dose group) and in [6] (low-dose group) were 13.5% and 8.2%, respectively. The “RRR of LCOS” value in series [6] (low-dose group versus placebo, not statistically significant) is 34%. In addition, the “average peak plasma concentration” value in series [7] is 235 ng/mL. In addition, the “mean decrease in blood pressure” value in [7] is 12%. The “weaning from cardiopulmonary bypass” value in series [8] is listed as “all patients were successfully weaned”. For the same compound, the “mean decrease in pulmonary vascular resistance” value in [9] (at 5 minutes) is 31%. Further, the duration of response entry in series [9] is reported as “at least 20 minutes”. Moreover, the pulmonary vascular resistance in the series with patients with CHF (from 3.9) is reported as 2.5 Wood units. Besides, in the series on patients with CHF (from 4.0), the Cardiac output is reported as 5.1 L/min. In addition, the “pulmonary capillary wedge pressure” value in the series on patients with CHF (from 20) is 15 mmHg. Moreover, the “mean pulmonary artery pressure” value in the series with patients with CHF (from 35) is listed as 28 mmHg. Besides, the “inducible VT during programmed right ventricular stimulation” value in [10] is “none of the patients experienced inducible VT”. Also, the “vasoconstriction by K+, ET-1, U46619 and phenylephrine” value in series [11] is recorded as “significantly less vasoconstricition”. In addition, the “Plasma concentrations of IL1-beta and IL6” value in series [12] (after CPB, versus control group, 0.5 μg/kg/minute for 24 hours) was “significantly lower”. The “concentrations of cyclic adenosine monophosphate” value in [12] (versus controls) is on record as “significantly increased”. Besides, the mortality rate in the series with patients with severe CHF [13] (at 1 year of therapy) is on record as 63%; in the series on patients with severe CHF [13] (at 6 months) it was 39%. Also, the “patients with adverse effects” value in the series with patients with severe CHF [13] (average 27 mg/day) is 11%. For the same compound, the “patients with drug withdrawal due to adverse effects” value in the series on patients with severe CHF [13] (average 27 mg/day) was 4%. In addition, the “patients improved by at least one New York Heart Association functional class” value in the series with patients with severe CHF [13] (within 1 month of therapy, remaining 94 patients) is 51%.
Regarding `CNC[C@H](O)c1ccc(O)c(O)c1` [epinephrine], the “change in IMA flow” value in series [5] is “unchanged”.
